Results from US8481536B2, “Benzotriazine inhibitors of kinases” (TargeGen, Inc., priority 2004, dated 2013).

Each molecule was assayed against Recombinant human c-Src (Homo sapiens (Human), UniProt P12931) (assay: Src kinase inhibition in vitro (luciferase-based residual ATP, KinaseGlo)). Settings: ATP 3 μM, PTK2 substrate, 90 minutes at room temperature.
Assay type: biochemical
Description: The ability of compounds of the present invention to inhibit the activity of three groups of kinases was tested. Kinases tested included the src family (primarily src and yes), some angiogenic growth factor receptors (Fgfr1, Vegfr, and Pdgfrβ) and the ephrin, EphB4. All kinase reactions were conducted in 96-well plates with a final reaction volume of 50 ul.
After reacting for about 90 minutes at room temperature, residual ATP was determined using a luciferase-based assay (KinaseGlo, Promega Corp.) as a measure of kinase activity. Data from four wells were then averaged and used to determine IC50 values for the test compounds (Prism software package, GraphPad Software, San Diego Calif.).
The test results for inhibition of Src kinase are presented in Table 1, and the test results for inhibition of some other kinases (i.e., Yes, EphB4, and Pdgfrβ) are presented in Table 2.

Recombinant human c-Src, sequence (P12931 whole entry, looked up): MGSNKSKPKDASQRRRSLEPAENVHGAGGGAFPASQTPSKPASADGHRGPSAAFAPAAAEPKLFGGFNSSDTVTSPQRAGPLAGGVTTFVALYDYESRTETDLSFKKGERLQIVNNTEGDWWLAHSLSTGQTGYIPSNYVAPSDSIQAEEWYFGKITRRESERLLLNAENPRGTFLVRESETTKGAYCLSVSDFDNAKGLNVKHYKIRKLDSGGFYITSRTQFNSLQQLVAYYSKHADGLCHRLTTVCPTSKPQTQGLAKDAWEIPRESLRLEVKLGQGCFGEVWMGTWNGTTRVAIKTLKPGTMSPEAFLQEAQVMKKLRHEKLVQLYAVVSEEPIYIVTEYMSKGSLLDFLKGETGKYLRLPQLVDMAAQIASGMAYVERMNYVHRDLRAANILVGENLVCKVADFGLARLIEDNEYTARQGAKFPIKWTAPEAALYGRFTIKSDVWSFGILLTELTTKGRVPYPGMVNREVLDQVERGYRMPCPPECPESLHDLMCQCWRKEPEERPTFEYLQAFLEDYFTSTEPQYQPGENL

Row | SMILES | IC50 [nM]
1 | Cc1ccc(C#N)cc1-c1cc(C)c2nc(Nc3ccc(S(=O)(=O)NCCN4CCCC4)cc3)nnc2c1 | 25.2
2 | Cc1cccc(C)c1-c1cc(C)c2nc(Nc3ccc(N(C)C)cc3)nnc2c1 | 244
3 | Cc1cc(-c2c(O)cccc2Cl)cc2nnc(Nc3ccc(S(=O)(=O)NCCN4CCCC4)cc3)nc12 [4-(7-(2-chloro-6-hydroxyphenyl)-5-methylbenzo[e][1,2,4]triazin-3-ylamino)-N-(2-(pyrrolidin-1-yl)ethyl)benzensulfonamide] | 12.6
4 | CNc1cccc(-c2cc(C)c3nc(Nc4ccc(S(=O)(=O)NCCN5CCCC5)cc4)nnc3c2)c1 [4-[5-methyl-7-(3-methylamino-phenyl)-benzo[1,2,4]triazin-3-ylamino]-N-(2-pyrrolidin-1-yl-ethyl)-benzenesulfonamide] | 631
5 | Cc1cc2nc(Nc3ccc(S(=O)(=O)NCCN4CCCC4)cc3)nnc2cc1-c1ccccc1C(F)(F)F [4-[6-methyl-7-(2-trifluoromethyl-phenyl)-benzo[1,2,4]triazin-3-ylamino]-N-(2-pyrrolidin-1-yl-ethyl)-benzenesulfonamide] | 66.5
6 | Cc1cc(-c2c(Cl)cccc2Cl)cc2nnc(Nc3ccc(S(=O)(=O)NCCN4CCCC4)cc3)nc12 [4-[7-(2,6-dichloro-phenyl)-5-methyl-benzo[1,2,4]triazin-3-ylamino]-N-(2-pyrrolidin-1-yl-ethyl)-benzenesulfonamide] | 14
7 | Cc1cc(-c2cccc(N)c2)cc2nnc(Nc3ccc(S(=O)(=O)NCCN4CCCC4)cc3)nc12 [4-[7-(3-amino-phenyl)-5-methyl-benzo[1,2,4]triazin-3-ylamino]-N-(2-pyrrolidin-1-yl-ethyl)-benzenesulfonamide] | 282
8 | Cc1cc(-c2cccc(NS(C)(=O)=O)c2)cc2nnc(Nc3ccc(S(=O)(=O)NCCN4CCCC4)cc3)nc12 [4-[7-(3-methanesulfonylamino-phenyl)-5-methyl-benzo[1,2,4]triazin-3-ylamino]-N-(2-pyrrolidin-1-yl-ethyl)-benzenesulfonamide] | 2900
9 | Cc1ccc(C#N)cc1-c1cc2nnc(Nc3ccc(S(=O)(=O)NCCN4CCCC4)cc3)nc2cc1C [4-[7-(5-Cyano-2-methyl-phenyl)-6-methyl-benzo[1,2,4]triazin-3-ylamino]-N-(2-pyrrolidin-1-yl-ethyl)-benzenesulfonamide] | 12.3
10 | Cc1cccc(C)c1-c1cc(N)c2nc(Nc3ccc(OCCN4CCCC4)cc3)nnc2c1 [7-(2,6-dimethyl-phenyl)-N3-[4-(2-pyrrolidin-1-yl-ethoxy)-phenyl]-benzo[1,2,4]triazine-3,5-diamine] | 9.7
11 | Cc1cccc(Nc2nnc3cc(-c4c(C)cccc4C)cc(C)c3n2)c1C [(2,3-dimethyl-phenyl)-[7-(2,6-dimethyl-phenyl)-5-methyl-benzo[1,2,4]triazin-3-yl]-amine] | > 10000
12 | COc1ccccc1Nc1nnc2cc(-c3c(C)cccc3C)cc(C)c2n1 [(2-methoxy-phenyl)-[7-(2,6-dimethyl-phenyl)-5-methyl-benzo[1,2,4]triazin-3-yl]-amine] | > 100000
13 | Cc1cc(N2CCCCC2)cc2nnc(Nc3cccnc3)nc12 [(5-methyl-7-piperidin-1-yl-benzo[1,2,4]triazin-3-yl)-pyridin-3-yl-amine] | > 10000
14 | Cc1cc(-c2cc(OC(=O)c3ccccc3)ccc2Cl)cc2nnc(Nc3ccc(OCCN4CCCC4)cc3)nc12 [Benzoic acid 4-chloro-3-{5-methyl-3-[4-(2-pyrrolidin-1-yl-ethoxy)-phenylamino]-benzo[1,2,4]triazin-7-yl}-phenyl ester] | > 10000
15 | Cc1cccc(C)c1-c1cc(C)c2nc(NC(=O)c3ccccc3)nnc2c1 [N-[7-(2,6-dimethyl-phenyl)-5-methyl-benzo[1,2,4]triazin-3-yl]-benzamide] | 1800
16 | Cc1cc(C)c(-c2cc(C)c3nc(Nc4ccccc4)nnc3c2)c(C)c1 [[5-methyl-7-(2,4,6-trimethyl-phenyl)-benzo[1,2,4]triazin-3-yl]-phenyl-amine] | > 10000
17 | Clc1cccc(Cl)c1-c1ccc2nc(Nc3ccc(OCCN4CCCC4)cc3)nnc2c1 [[7-(2,6-dichloro-phenyl)-benzo[1,2,4]triazin-3-yl]-[4-(2-pyrrolidin-1-yl-ethoxy)-phenyl]-amine] | 121
18 | Cc1cccc(C)c1-c1cc2nnc(Nc3ccccc3)nc2c(C)c1C [[7-(2,6-dimethyl-phenyl)-5,6-dimethyl-benzo[1,2,4]triazin-3-yl]-phenyl-amine] | 130

The remaining lines, values ahead:

Row | IC50 [nM] | SMILES
19 | 315 | Cc1cc2nc(Nc3ccc(S(=O)(=O)NCCN4CCCC4)cc3)nnc2cc1-c1ccccc1 [4-(6-methyl-7-phenyl-benzo[1,2,4]triazin-3-ylamino)-N-(2-pyrrolidin-1-yl-ethyl)-benzenesulfonamide]
20 | 72.2 | Cc1cc2nc(Nc3ccc(S(=O)(=O)NCCN4CCCC4)cc3)nnc2cc1-c1ccccc1CO [4-[7-(2-Hydroxymethyl-phenyl)-6-methyl-benzo[1,2,4]triazin-3-ylamino]-N-(2-pyrrolidin-1-yl-ethyl)-benzenesulfonamide]
21 | 51 | Cc1cc(-c2cc(N)ccc2Cl)cc2nnc(Nc3ccc(S(=O)(=O)NCCN4CCCC4)cc3)nc12 [4-[7-(5-amino-2-chloro-phenyl)-5-methyl-benzo[1,2,4]triazin-3-ylamino]-N-(2-pyrrolidin-1-yl-ethyl)-benzenesulfonamide]
22 | 10.6 | CNc1cc(-c2c(C)cccc2C)cc2nnc(Nc3ccc(OCCN4CCCC4)cc3)nc12 [7-(2,6-dimethyl-phenyl)-N5-methyl-N3-[4-(2-pyrrolidin-1-yl-ethoxy)-phenyl]-benzo[1,2,4]triazine-3,5-diamine]
23 | > 10000 | Cc1ccc(Nc2nnc3cc(-c4c(C)cccc4C)cc(C)c3n2)c(C)c1 [(2,4-dimethyl-phenyl)-[7-(2,6-dimethyl-phenyl)-5-methyl-benzo[1,2,4]triazin-3-yl]-amine]
24 | > 10000 | Cc1ccc(C)c(Nc2nnc3cc(-c4c(C)cccc4C)cc(C)c3n2)c1 [(2,5-dimethyl-phenyl)-[7-(2,6-dimethyl-phenyl)-5-methyl-benzo[1,2,4]triazin-3-yl]-amine]
25 | 134 | Cc1cccc(C)c1-c1cc(C)c2nc(Nc3cccc(Cl)c3)nnc2c1 [(3-chloro-phenyl)-[7-(2,6-dimethyl-phenyl)-5-methyl-benzo[1,2,4]triazin-3-yl]-amine]
26 | > 100000 | CCCCc1ccc(Nc2nnc3cc(-c4c(C)cccc4C)cc(C)c3n2)cc1 [(4-butyl-phenyl)-[7-(2,6-dimethyl-phenyl)-5-methyl-benzo[1,2,4]triazin-3-yl]-amine]
27 | 108 | CCOc1ccc(Nc2nnc3cc(-c4c(C)cccc4C)cc(C)c3n2)cc1 [(4-ethoxy-phenyl)-[7-(2,6-dimethyl-phenyl)-5-methyl-benzo[1,2,4]triazin-3-yl]-amine]
28 | 140 | COc1ccc(Nc2nnc3cc(-c4c(C)cccc4C)cc(C)c3n2)cc1 [(4-methoxy-phenyl)-[7-(2,6-dimethyl-phenyl)-5-methyl-benzo[1,2,4]triazin-3-yl]-amine]
29 | 1800 | Cc1cc(-c2ccccn2)cc2nnc(Nc3ccc(OCCN4CCCC4)cc3)nc12 [(5-methyl-7-pyridin-2-yl-benzo[1,2,4]triazin-3-yl)-[4-(2-pyrrolidin-1-yl-ethoxy)-phenyl]-amine]
30 | > 10000 | CC(=O)Nc1nnc2cc(-c3c(C)cccc3C)cc(C)c2n1 [N-[7-(2,6-dimethyl-phenyl)-5-methyl-benzo[1,2,4]triazin-3-yl]-acetamide]
